From patent US20230381774A1, “MICROFLUDIC LAB-ON-CHIP DEVICE, MATRIX, SMALL MOLECULES AND THREE-DIMENSIONAL SPHEROIDS FOR CELL REPROGRAMMING” (The Regents of the University of California, priority 2022, published 2023)

Key:
Format in all cases: cell-based, mouse
histone marks = test: Immunofluorescence of histone marks in non-transduced fibroblasts; conditions: global; 10 μM blebbistatin or 5 μM PF573228, 2 hours, vs control
Protocol: (§1) For immunostaining, cells were fixed with 4% paraformaldehyde (Electron Microscopy Sciences), permeabilized with 0.5% Triton-X-100 (Sigma), and blocked with 5% donkey serum (Jackson Immunoresearch) in phosphate buffered saline (PBS). For actin-cytoskeleton staining, samples were incubated with fluorescein isothiocyanate-conjugated phalloidin (Invitrogen) for 1 hour. Primary antibodies were incubated for 1 hour at room temperature or overnight at 4° C., followed by 1-hour incubation with Alexa 488 and/or Alexa 546-labeled secondary antibodies (Molecular Probes). Nuclei were stained with 4,6-diamino-2-phenylindole (DAPI) (Invitrogen).
Quantification of histone intensity per nuclei was performed using an ImageJ macro. DAPI-stained nuclei were segmented using gaussian blur, thresholding, watershed, and analyze particle functions to identify individual nuclei. This mask was applied to the corresponding stained fluorescence channel to quantify the average fluorescence intensity within each nucleus.

fibroblasts = test: Cell morphology, actin and focal adhesion immunostaining; conditions: 24 hours
Protocol: as §1

[1] = test system: DNA methyltransferase (DNMT); test: DNMT activity assay on nuclear extracts of treated fibroblasts; conditions: 10 μM blebbistatin or 5 μM PF573228, 2 hours, vs DMSO
Protocol: Nuclear protein extractions were isolated from 5×10^5 fibroblasts treated with vehicle control (DMSO), 10 μM blebbistatin or 5 μM PF573228 for 2 hours using a nuclear extraction kit (EpiGentek, OP-0002), in accordance with the manufacturer's instructions. HAT, HDAC, H3K4 HMT, H3K4 HDM and DNMT activity were measured using the HAT activity/inhibition assay (EpiGentek, P-4003-048), HDAC activity/inhibition assay (EpiGentek, P-4034-096), Histone methyltransferase (H3K4 specific) activity/inhibition assay (EpiGentek, P-3002-1), Histone Demethylase (H3K4 specific) activity/inhibition assay (EpiGentek, P-3074-48), and DNMT activity/inhibition assay (EpiGentek, P-3009-048), respectively. Per the manufacturer's instructions, 20 μg of nuclear extract was added into the assay wells and incubated at 37° C. for 90 minutes. After adding the color developer solution, the absorbance was measured using a plate reader (Infinite […], 30050303) at 450 nm for all the assays with the exception of the Histone Demethylase (H3K4 specific) activity/inhibition assay where we measured the fluorescence using a fluorescence microplate reader at 530 EX/590 EM nm.

[2] = test system: Ascl1-transduced fibroblasts; test: Single-factor (Ascl1-only) iN reprogramming; conditions: 10 μM, relative to control
Protocol: After transduction, mouse fibroblasts were seeded onto multi-well tissue culture-treated polystyrene dishes (Falcon) coated with laminin (0.1 mg/ml, Corning) at 4,000 cells per cm^2. Twenty-four hours after seeding, the medium was replaced to MEF medium containing doxycycline (2 μg/ml, Sigma). The following day (i.e., day 1) the medium was changed to N3 medium (DMEM/F12 [GIBCO]+N2 supplement [Invitrogen]+B27 supplement [Invitrogen]+1% penicillin/streptomycin [Gibco]+ doxycycline [2 μg/ml, Sigma]) and the cultures were maintained in this medium for the duration of the experiments. For Ascl1-only reprogramming, N3 medium was further supplemented with BDNF (5 ng/ml, R&D systems) and GDNF (5 ng/ml, R&D systems) after day 7. […] After culturing for the desired length (14 days for BAM and 21 days for Ascl1 only), the induced neuronal (iN) cells were analyzed and the reprogramming efficiency was determined.
The reprogramming efficiency was determined by as the percentage of TUBB3^+ iN cells in each condition normalized to the number of cells plated at 24 hours post-seeding. […]

ERK = test: Downstream ERK signaling (Western blot)
Protocol: Fibroblasts were lysed and collected in Laemmli buffer ([…] Tris-HCl, 10% glycerol, 2% SDS, 5% 2-mercaptoethanol, 0.002% bromophenol blue) containing RIPA buffer (50 mM Tris-HCl, 150 mM NaCl, 1% Triton-X-100, 0.1% SDS, 10 mM NaF, 0.5% sodium deoxycholate) along with protease inhibitors (PMSF, Na3VO4 and Leupeptin) on ice. Protein lysates were centrifuged to pellet cell debris, and the supernatant was collected and used in further analysis. Protein samples were run using SDS-PAGE and transferred to polyvinylidene fluoride (PVDF) membranes. Membranes were blocked in 3% nonfat milk and incubated with primary antibodies overnight. Primary antibodies include pFAK, FAK, αSMA, Calponin, pERK, ERK, and GAPDH. Membranes were washed with Tris-Buffered Saline+0.05% Tween-20 and incubated with HRP-conjugated IgG secondary antibodies (Santa Cruz Biotechnologies) for one hour. Protein bands were visualized using Western Lightning™ Plus—Enhanced Chemiluminscence Substrate (Perkin Elmer Life & Analytical Sciences) and imaged on a ChemiDoc XRS system (Bio-Rad).

Structure (SMILES)	euchromatin marks (AcH3, H3K4me3, H3K4me1) (histone marks)	heterochromatin marks (H3K27me3, H3K9me3) (histone marks)	actin fibers (fibroblasts)	paxillin punctate (fibroblasts)	cell morphology and spreading (fibroblasts; 10 μM)	DNMT activity [1]	iN cell generation from Ascl1-transduced fibroblasts [2]	downstream ERK signaling (ERK)
Cc1ccc2c(c1)C(=O)C1(O)CCN(c3ccccc3)C1=N2 (centres unmarked) [blebbistatin]	an increase in AcH3, H3K4me3, and H3K4me1 marks	decreased	fewer intact actin fibers	fewer positive paxillin punctate	induced dramatic changes in cell morphology and reduced cell spreading	a decrease in DNA methyltransferase (DNMT) activity	could generate significantly more iN cells from Ascl1-transduced fibroblasts relative to control	–
CS(=O)(=O)c1cccc(CNc2nc(Nc3ccc4c(c3)CCC(=O)N4)ncc2C(F)(F)F)c1 [PF573228]	global increases in AcH3, H3K3me3 and H3K4me1 marks	a concurrent decrease in H3K9me3 and H3K27me3	–	–	–	a reduction in 5-mC marks and DNMT activity	–	modulated downstream ERK signaling
